Here are results for three compounds from EP2601952A1, “Novel pharmaceutically acceptable salts and cocrystals of 5-chloro-3-(4-methanesulfonylphenyl)-6'-methyl-[2,3']bipyridinyl and their therapeutic uses” (Zentiva, k.s., priority 2011, dated 2013).

Structures are written as SMILES.

A short description of data set [1]: Polymorphic stability: maturation / slurrying of the salts in various solvents. In kind it is physicochemical. The protocol:
Example 6: Method for assessing polymorphic stability of the succinic acid salt and Form A of the fumaric acid salt of 5-chloro-3-(4-methanesulfonylphenyl)-6'-methyl-[2,3']bipyridinyl.
Approximately 50-100 mg of the salts under investigation were suspended in 1ml of water, ethanol, 1-propanol, 2-propanol, 1-butanol, 2-butanol, tert-butanol, 1-pentanol, acetone, methyl ethyl ketone, isobutyl methyl ketone, ethyl formate, methyl acetate, ethyl acetate, propyl acetate, isopropyl acetate, butyl acetate, isobutyl acetate, tetrahydrofuran, 1,4-dioxane, toluene, acetonitrile and N-methyl pyrrolidine. […] The excess solvent was removed and the samples evaporated to dryness in a vacuum oven at 25 °C.

Data set [2] in a line: DVS isotherm (hygroscopicity, hydrate formation). In kind it is physicochemical. The settings on record: for hygroscopicity: DVS isotherm plot (Figure 4 / Figure 11).
For data set [3] the following is noted: anhydrous crystalline forms I, II, III, IV and V; Journal of Pharmaceutical Sciences, 95, 1, 56-69 (2006); cited from earlier work.

As for `Cc1ccc(-c2ncc(Cl)cc2-c2ccc(S(C)(=O)=O)cc2)cn1.O=C(O)CCC(=O)O` [succinic acid salt, succinic acid salt of 5-chloro-3-(4-methanesulfonylphenyl)-6'-methyl-[2,3']bipyridinyl], in data set [1] (Example 6: suspended in 1 ml of solvent, agitated at 25°C for 35 days), the “polymorphic changes when maturated in various solvents” value is given as “lack of observed polymorphic changes”. For the same compound, the hygroscopicity result in data set [2] is “relatively non-hygroscopic”. For the same compound, the “stability with respect to hydrate formation” value in data set [2] (DVS isotherm plot, Figure 4) is listed as “stable with respect to hydrate formation”.
Consider `Cc1ccc(-c2ncc(Cl)cc2-c2ccc(S(C)(=O)=O)cc2)cn1` [etoricoxib, 5-Chloro-3-(4-methanesulfonylphenyl)-6'-methyl-[2,3']bipyridinyl], for which, in data set [3], the “instability of anhydrous crystalline forms” value is given as “convert to hemihydrate”.
On to `Cc1ccc(-c2ncc(Cl)cc2-c2ccc(S(C)(=O)=O)cc2)cn1.O=C(O)/C=C/C(=O)O` [Form A of the fumaric acid salt, fumaric acid salt of 5-chloro-3-(4-methanesulfonylphenyl)-6'-methyl-[2,3']bipyridinyl], for which the “polymorphic conversion on slurrying” value in data set [1] (slurrying in an aliphatic alcohol or cyclic ether) is “Form B can be generated”. Besides, in data set [2], the hygroscopicity result is on record as “relatively non-hygroscopic”.
